# The source made the active and inactive calls. The calls are words filed in the database; no cut-off is given here.
# Experiments:
# [1] = Ionization constant, pKa of the compound by UV spectroscopy; format: physicochemical
# [2] = n-octanol/water partition coefficient, log P of the compound at 25 deg C after 24 hrs by saturation shake flask based UV spectroscopy; format: physicochemical
# Staphylococcus aureus [3] = assay: Antibacterial activity against Staphylococcus aureus ATCC 25923 after 24 hrs by micro broth dilution method; format: functional; conditions: ATCC 25923, 24 h
# Staphylococcus aureus [4] = assay: Antibacterial activity against methicillin-resistant Staphylococcus aureus N315 after 24 hrs by micro broth dilution method; format: functional; conditions: N315, 24 h
# Bacillus spizizenii [5] = assay: Antibacterial activity against Bacillus subtilis ATCC 6633 after 24 hrs by micro broth dilution method; format: functional; conditions: ATCC 6633, 24 h
# Micrococcus luteus [6] = assay: Antibacterial activity against Micrococcus luteus ATCC 4698 after 24 hrs by micro broth dilution method; format: functional; conditions: ATCC 4698, 24 h
# Bacillus sp. [7] = assay: Antibacterial activity against Bacillus proteus ATCC 13315 after 24 hrs by micro broth dilution method; format: functional; conditions: Bacillus sp. (in: firmicutes), ATCC 13315, 24 h
# Escherichia coli [8] = assay: Antibacterial activity against Escherichia coli DH52 after 24 hrs by micro broth dilution method; format: functional; conditions: DH52, 24 h
# Pseudomonas aeruginosa [9] = assay: Antibacterial activity against Pseudomonas aeruginosa ATCC 27853 after 24 hrs by micro broth dilution method; format: functional; conditions: ATCC 27853, 24 h
# Shigella dysenteriae [10] = assay: Antibacterial activity against Shigella dysenteriae ATCC 51252 after 24 hrs by micro broth dilution method; format: functional; conditions: ATCC 51252, 24 h
# Candida albicans [11] = assay: Antifungal activity against Candida albicans ATCC 90029 after 24 hrs by micro broth dilution method; format: functional; conditions: ATCC 90029, 24 h
# Cyberlindnera jadinii [12] = assay: Antifungal activity against Candida utilis ATCC 9950 after 24 hrs by micro broth dilution method; format: functional; conditions: Williopsis jadinii, ATCC 9950, 24 h
# Candida [13] = assay: Antifungal activity against Candida mycoderma after 24 hrs by micro broth dilution method; format: functional
# Aspergillus flavus [14] = assay: Antifungal activity against Aspergillus flavus after 24 hrs by micro broth dilution method; format: functional
# Bacillus spizizenii [15] = assay: Antibacterial activity against Bacillus subtilis ATCC 6633 by micro dilution checkerboard method in the presence of chloromycin; format: functional
# Micrococcus luteus [16] = assay: Antibacterial activity against Micrococcus luteus ATCC 4698 by micro dilution checkerboard method in the presence of chloromycin; format: functional
# Bacillus sp. [17] = assay: Antibacterial activity against Bacillus proteus ATCC 13315 by micro dilution checkerboard method in the presence of chloromycin; format: functional
# Escherichia coli [18] = assay: Antibacterial activity against Escherichia coli DH52 by micro dilution checkerboard method in the presence of chloromycin; format: functional
# Pseudomonas aeruginosa [19] = assay: Antibacterial activity against Pseudomonas aeruginosa ATCC 27853 by micro dilution checkerboard method in the presence of chloromycin; format: functional
# Shigella dysenteriae [20] = assay: Antibacterial activity against Shigella dysenteriae ATCC 51252 by micro dilution checkerboard method in the presence of chloromycin; format: functional
# Staphylococcus aureus [21] = assay: Antibacterial activity against Staphylococcus aureus ATCC 25923 by micro dilution checkerboard method in the presence of norfloxacin; format: functional
# Staphylococcus aureus [22] = assay: Antibacterial activity against methicillin-resistant Staphylococcus aureus N315 by micro dilution checkerboard method in the presence of norfloxacin; format: functional
# Bacillus spizizenii [23] = assay: Antibacterial activity against Bacillus subtilis ATCC 6633 by micro dilution checkerboard method in the presence of norfloxacin; format: functional
# Micrococcus luteus [24] = assay: Antibacterial activity against Micrococcus luteus ATCC 4698 by micro dilution checkerboard method in the presence of norfloxacin; format: functional
# Bacillus sp. [25] = assay: Antibacterial activity against Bacillus proteus ATCC 13315 by micro dilution checkerboard method in the presence of norfloxacin; format: functional
# Escherichia coli [26] = assay: Antibacterial activity against Escherichia coli DH52 by micro dilution checkerboard method in the presence of norfloxacin; format: functional
# Pseudomonas aeruginosa [27] = assay: Antibacterial activity against Pseudomonas aeruginosa ATCC 27853 by micro dilution checkerboard method in the presence of norfloxacin; format: functional
# Shigella dysenteriae [28] = assay: Antibacterial activity against Shigella dysenteriae ATCC 51252 by micro dilution checkerboard method in the presence of norfloxacin; format: functional
# Candida albicans [29] = assay: Antifungal activity against Candida albicans ATCC 90029 by micro dilution checkerboard method in the presence of fluconazole; format: functional
# Candida [30] = assay: Antifungal activity against Candida mycoderma by micro dilution checkerboard method in the presence of fluconazole; format: functional
# Cyberlindnera jadinii [31] = assay: Antifungal activity against Candida utilis ATCC 9950 by micro dilution checkerboard method in the presence of fluconazole; format: functional
# Aspergillus flavus [32] = assay: Antifungal activity against Aspergillus flavus by micro dilution checkerboard method in the presence of fluconazole; format: functional
# Calf thymus DNA [33] = assay: Binding affinity to calf thymus DNA by UV-visible spectroscopy; format: nucleic-acid assay; conditions: Bos taurus
# Calf thymus DNA [34] = assay: Competitive binding affinity to calf thymus DNA by UV-visible spectroscopy in presence of neutral red; format: nucleic-acid assay; conditions: Bos taurus
# Staphylococcus aureus [35] = assay: Antibacterial activity against Staphylococcus aureus ATCC 25923 by micro dilution checkerboard method in the presence of chloromycin; format: functional
# Staphylococcus aureus [36] = assay: Antibacterial activity against methicillin-resistant Staphylococcus aureus N315 by micro dilution checkerboard method in the presence of chloromycin; format: functional
# [37] = Bacillus sp. (in: firmicutes), ATCC 13315
# [38] = Pseudomonas aeruginosa, ATCC 27853
# [39] = Staphylococcus aureus, ATCC 25923
smiles,measurement,setting,value
Fc1ccccc1CN(Cc1nnn[nH]1)c1ccccc1,pKa,[1],4.22
same,logP at 24 h,[2],1.28
same,MIC,Staphylococcus aureus [3],64 µg/mL
same,MIC,Staphylococcus aureus [4],64 µg/mL
same,MIC,Bacillus spizizenii [5],32 µg/mL
same,MIC,Micrococcus luteus [6],64 µg/mL
same,MIC,Bacillus sp. [7],64 µg/mL
same,MIC,Escherichia coli [8],64 µg/mL
same,MIC,Pseudomonas aeruginosa [9],64 µg/mL
same,MIC,Shigella dysenteriae [10],128 µg/mL
same,MIC,Candida albicans [11],32 µg/mL
same,MIC,Cyberlindnera jadinii [12],32 µg/mL
same,MIC,Candida [13],16 µg/mL
same,MIC,Aspergillus flavus [14],64 µg/mL
Fc1ccc(CN(Cc2nnn[nH]2)c2ccccc2)cc1,pKa,[1],4.2
same,logP at 24 h,[2],1.26
same,MIC,Staphylococcus aureus [3],64 µg/mL
same,MIC,Staphylococcus aureus [4],64 µg/mL
same,MIC,Bacillus spizizenii [5],64 µg/mL
same,MIC,Micrococcus luteus [6],256 µg/mL
same,MIC,Bacillus sp. [7],128 µg/mL
same,MIC,Escherichia coli [8],64 µg/mL
same,MIC,Pseudomonas aeruginosa [9],64 µg/mL
same,MIC,Shigella dysenteriae [10],64 µg/mL
same,MIC,Candida albicans [11],32 µg/mL
same,MIC,Cyberlindnera jadinii [12],16 µg/mL
same,MIC,Candida [13],16 µg/mL
same,MIC,Aspergillus flavus [14],32 µg/mL
Cc1ccc(N(Cc2nnn[nH]2)Cc2ccc(F)cc2F)cc1,pKa,[1],4.23
same,logP at 24 h,[2],1.42
same,MIC,Staphylococcus aureus [3],64 µg/mL
same,MIC,Staphylococcus aureus [4],64 µg/mL
same,MIC,Bacillus spizizenii [5],64 µg/mL
same,MIC,Micrococcus luteus [6],64 µg/mL
same,MIC,Bacillus sp. [7],64 µg/mL
same,MIC,Escherichia coli [8],64 µg/mL
same,MIC,Pseudomonas aeruginosa [9],32 µg/mL
same,MIC,Shigella dysenteriae [10],64 µg/mL
same,MIC,Candida albicans [11],32 µg/mL
same,MIC,Cyberlindnera jadinii [12],32 µg/mL
same,MIC,Candida [13],16 µg/mL
same,MIC,Aspergillus flavus [14],32 µg/mL
Clc1ccc(CN(Cc2nnn[nH]2)c2ccccc2)c(Cl)c1,pKa,[1],4.54
same,logP at 24 h,[2],1.67
same,MIC,Staphylococcus aureus [3],32 µg/mL
same,MIC,Staphylococcus aureus [4],64 µg/mL
same,MIC,Bacillus spizizenii [5],32 µg/mL
same,MIC,Micrococcus luteus [6],64 µg/mL
same,MIC,Bacillus sp. [7],32 µg/mL
same,MIC,Escherichia coli [8],16 µg/mL
same,MIC,Pseudomonas aeruginosa [9],32 µg/mL
same,MIC,Shigella dysenteriae [10],64 µg/mL
same,MIC,Candida albicans [11],16 µg/mL
same,MIC,Cyberlindnera jadinii [12],8 µg/mL
same,MIC,Candida [13],8 µg/mL
same,MIC,Aspergillus flavus [14],16 µg/mL
CCCCCCN(Cc1nnn[nH]1)c1ccccc1,pKa,[1],4.78
same,logP at 24 h,[2],2.18
same,MIC,Staphylococcus aureus [3],128 µg/mL
same,MIC,Staphylococcus aureus [4],256 µg/mL
same,MIC,Bacillus spizizenii [5],128 µg/mL
same,MIC,Micrococcus luteus [6],128 µg/mL
same,MIC,Bacillus sp. [7],128 µg/mL
same,MIC,Escherichia coli [8],128 µg/mL
same,MIC,Pseudomonas aeruginosa [9],128 µg/mL
same,MIC,Shigella dysenteriae [10],128 µg/mL
same,MIC,Candida albicans [11],64 µg/mL
same,MIC,Cyberlindnera jadinii [12],64 µg/mL
same,MIC,Candida [13],64 µg/mL
same,MIC,Aspergillus flavus [14],64 µg/mL
Cc1ccc(N(Cc2nnn[nH]2)Cc2ccc(Cl)cc2Cl)cc1,pKa,[1],4.26
same,logP at 24 h,[2],1.99
same,MIC,Staphylococcus aureus [3],32 µg/mL
same,MIC,Staphylococcus aureus [4],16 µg/mL
same,MIC,Bacillus spizizenii [5],64 µg/mL
same,MIC,Micrococcus luteus [6],32 µg/mL
same,MIC,Bacillus sp. [7],32 µg/mL
same,MIC,Escherichia coli [8],16 µg/mL
same,MIC,Pseudomonas aeruginosa [9],32 µg/mL
same,MIC,Shigella dysenteriae [10],32 µg/mL
same,MIC,Candida albicans [11],16 µg/mL
same,MIC,Cyberlindnera jadinii [12],16 µg/mL
same,MIC,Candida [13],8 µg/mL
same,MIC,Aspergillus flavus [14],16 µg/mL
CCCCCCCCN(Cc1nnn[nH]1)c1ccccc1,pKa,[1],4.83
same,logP at 24 h,[2],2.24
same,MIC,Staphylococcus aureus [3],128 µg/mL
same,MIC,Staphylococcus aureus [4],128 µg/mL
same,MIC,Bacillus spizizenii [5],128 µg/mL
same,MIC,Micrococcus luteus [6],64 µg/mL
same,MIC,Bacillus sp. [7],128 µg/mL
same,MIC,Escherichia coli [8],64 µg/mL
same,MIC,Pseudomonas aeruginosa [9],256 µg/mL
same,MIC,Shigella dysenteriae [10],128 µg/mL
same,MIC,Candida albicans [11],64 µg/mL
same,MIC,Cyberlindnera jadinii [12],128 µg/mL
same,MIC,Candida [13],32 µg/mL
same,MIC,Aspergillus flavus [14],128 µg/mL
Clc1ccccc1CN(Cc1nnn[nH]1)c1ccccc1,fractional inhibitory concentration index (FICI),Bacillus spizizenii [15],0.375
same,MIC,"Bacillus spizizenii [15]; Bacillus spizizenii, ATCC 6633",16 µg/mL
same,fractional inhibitory concentration index (FICI),Micrococcus luteus [16],0.5
same,MIC,"Micrococcus luteus [16]; Micrococcus luteus, ATCC 4698",8 µg/mL
same,fractional inhibitory concentration index (FICI),Bacillus sp. [17],0.75
same,MIC,Bacillus sp. [17]; [37],32 µg/mL
same,fractional inhibitory concentration index (FICI),Escherichia coli [18],0.75
same,MIC,"Escherichia coli [18]; Escherichia coli, DH52",16 µg/mL
same,fractional inhibitory concentration index (FICI),Pseudomonas aeruginosa [19],0.5
same,MIC,Pseudomonas aeruginosa [19]; [38],16 µg/mL
same,fractional inhibitory concentration index (FICI),Shigella dysenteriae [20],0.5
same,MIC,"Shigella dysenteriae [20]; Shigella dysenteriae, ATCC 51252",8 µg/mL
same,fractional inhibitory concentration index (FICI),Staphylococcus aureus [21],0.5
same,MIC,Staphylococcus aureus [21]; [39],16 µg/mL
same,fractional inhibitory concentration index (FICI),Staphylococcus aureus [22],0.75
same,MIC,"Staphylococcus aureus [22]; Staphylococcus aureus, N315",8 µg/mL
same,fractional inhibitory concentration index (FICI),Bacillus spizizenii [23],0.625
same,MIC,"Bacillus spizizenii [23]; Bacillus spizizenii, ATCC 6633",8 µg/mL
same,fractional inhibitory concentration index (FICI),Micrococcus luteus [24],0.75
same,MIC,"Micrococcus luteus [24]; Micrococcus luteus, ATCC 4698",8 µg/mL
same,fractional inhibitory concentration index (FICI),Bacillus sp. [25],0.5
same,MIC,Bacillus sp. [25]; [37],16 µg/mL
same,fractional inhibitory concentration index (FICI),Escherichia coli [26],0.625
same,MIC,"Escherichia coli [26]; Escherichia coli, DH52",8 µg/mL
same,fractional inhibitory concentration index (FICI),Pseudomonas aeruginosa [27],0.75
same,MIC,Pseudomonas aeruginosa [27]; [38],16 µg/mL
same,MIC,Shigella dysenteriae [28],4 µg/mL
same,fractional inhibitory concentration index (FICI),Candida albicans [29],0.75
same,MIC,"Candida albicans [29]; Candida albicans, ATCC 90029",2 µg/mL
same,fractional inhibitory concentration index (FICI),Candida [30],0.5
same,MIC,Candida [30]; Candida,2 µg/mL
same,fractional inhibitory concentration index (FICI),Cyberlindnera jadinii [31],0.5
same,MIC,"Cyberlindnera jadinii [31]; Williopsis jadinii, ATCC 9950",4 µg/mL
same,fractional inhibitory concentration index (FICI),Aspergillus flavus [32],0.5
same,MIC,Aspergillus flavus [32]; Aspergillus flavus,4 µg/mL
same,pKa,[1],4.34
same,logP at 24 h,[2],1.09
same,Activity,Calf thymus DNA [33],Dose-dependent effect
same,K,Calf thymus DNA [33],4.16 ×10⁴ L/mol
same,Activity,Calf thymus DNA [34],Active
same,MIC,Staphylococcus aureus [3],32 µg/mL
same,MIC,Staphylococcus aureus [4],32 µg/mL
same,MIC,Bacillus spizizenii [5],16 µg/mL
same,MIC,Micrococcus luteus [6],32 µg/mL
same,MIC,Bacillus sp. [7],16 µg/mL
same,MIC,Escherichia coli [8],16 µg/mL
same,MIC,Pseudomonas aeruginosa [9],16 µg/mL
same,MIC,Shigella dysenteriae [10],32 µg/mL
same,MIC,Candida albicans [11],8 µg/mL
same,MIC,Cyberlindnera jadinii [12],4 µg/mL
same,MIC,Candida [13],4 µg/mL
same,MIC,Aspergillus flavus [14],8 µg/mL
same,fractional inhibitory concentration index (FICI),Staphylococcus aureus [35],0.75
same,MIC,Staphylococcus aureus [35]; [39],16 µg/mL
same,fractional inhibitory concentration index (FICI),Staphylococcus aureus [36],0.5
same,MIC,"Staphylococcus aureus [36]; Staphylococcus aureus, N315",8 µg/mL
